In patent publication US20260327240A1, “1,4-CINEOLE DERIVATIVE AND INTERMEDIATE THEREOF, HERBICIDE CONTAINING SAID DERIVATIVE AS ACTIVE INGREDIENT, METHOD FOR USING HERBICIDE, AND METHOD FOR PREPARING AGROCHEMICAL COMPOSITION” (HOKKO CHEMICAL INDUSTRY CO., LTD., priority 2023, published 2026):

Assays:
Type in all cases: in vivo
Lindemia pyxidaria = assay: Test Example 2: herbicidal effect test by application during growth period of paddy rice; conditions: 7 days after sowing, 120 g per 10 ares, 14 days after application, read-out: weed inhibition rate
Procedure: (§1) Herbicidal Effect Test by Application During Growth Period of Paddy Rice
(§2) Wagner pots with an area of 1/10,000 […] were filled with paddy soil, followed by addition of water and incorporation of chemical fertilizer (N:P:K=16:16:16), after which puddling was performed. After that, seeds of Echinochloa crus-galli var. formosensis, broad-leaved weeds (Lindemia pyxidaria, and Monochoria vaginalis), and Scirpus juncoides were sown at a depth of 0 cm to 1 cm, 30 seeds each. Immediately after sowing, the pots were flooded and a water depth of approximately 3 cm was maintained. Subsequent management was conducted in a glass greenhouse. Seven days after sowing, an emulsifiable concentrate prepared according to Formulation Example 5 using the compound shown below was diluted with water, and a specified amount of the diluted solution was applied by dropper. The amount of the active ingredient to be applied was equivalent to 120 g per 10 ares. The test was conducted in duplicate for each chemical concentration group, and the herbicidal effect was evaluated 14 days after chemical application using the same criteria as in Test Example 1.

Echinochloa crus-galli [1] = assay: Test Example 4: herbicidal effect test by stem and leaf treatment in upland field; conditions: 7 days after sowing, 120 g per 10 ares, 14 days after application; for inhibition at 1200 g/ha: Echinochloa crus-galli, read-out: weed inhibition rate
Procedure: (§3) Herbicidal Effect Test by Stem and Leaf Treatment in Upland Field
(§4) Pots with an area of 36 cm^2 were filled with upland soil (alluvial loam), twenty seeds each of weeds of Digitaria ciliaris, Echinochloa crus-galli, Chenopodium album, and Amaranthus viridis were uniformly mixed with the top 1 cm layer of soil and the surface was lightly pressed down. Seven days after sowing, an emulsifiable concentrate prepared according to Formulation Example 5 using the compound shown below was diluted with water, and the diluted solution was sprayed onto the soil surface at a rate of 100 liters per 10 ares. The amount of the active ingredient to be applied was equivalent to 120 g per 10 ares. Fourteen days after chemical application, the herbicidal effect was evaluated according to the same criteria as in Test Example 1.

Digitaria ciliaris [2] = assay: as above; conditions: 7 days after sowing, 120 g per 10 ares, 14 days after application; for inhibition at 1200 g/ha: Digitaria ciliaris, read-out: weed inhibition rate
Procedure: as §3, §4

Scirpus juncoides [3] = assay: Test Example 2: herbicidal effect test by application during growth period of paddy rice; conditions: 7 days after sowing, 120 g per 10 ares, 14 days after application
Procedure: as §1, §2

[4] = tested on: Echinochloa crus-galli var. formosensis; assay: as above; conditions: 7 days after sowing, 120 g per 10 ares, 14 days after application; for inhibition at 1200 g/ha: Echinochloa crus-galli, read-out: weed inhibition rate
Procedure: as §1, §2

Scirpus juncoides [5] = assay: Test Example 1: herbicidal effect test by soil application in paddy rice; conditions: 120 g per 10 ares, 14 days after application
Procedure: (§5) Herbicidal Effect Test by Soil Application in Paddy Rice
as §2, with “(Lindernia pyxidaria” for “(Lindemia pyxidaria,”, “Immediately thereafter,” for “Seven days after sowing,”, “ares.” for “ares. The test was conducted in duplicate for each chemical concentration group, and the herbicidal effect was evaluated 14 days after chemical application using the same criteria as in Test Example 1.”
(§6) The present test was conducted in duplicate for each chemical concentration group, and the weed inhibition rate (%) was determined 14 days after chemical application using the following formula (Math. 1).

[6] = tested on: Echinochloa crus-galli var. formosensis; assay: as above; conditions: 120 g per 10 ares, 14 days after application; for inhibition at 1200 g/ha: Echinochloa crus-galli, 336 h, read-out: weed inhibition rate
Procedure: as §5
as §2, with “(Lindernia pyxidaria” for “(Lindemia pyxidaria,”, “Immediately thereafter,” for “Seven days after sowing,”, “ares.” for “ares. The test was conducted in duplicate for each chemical concentration group, and the herbicidal effect was evaluated 14 days after chemical application using the same criteria as in Test Example 1.”
as §6

Echinochloa crus-galli [7] = assay: Test Example 3: herbicidal effect test by soil application in upland field; conditions: 1 day after sowing, 120 g per 10 ares, 14 days after application; for inhibition at 1200 g/ha: Echinochloa crus-galli, read-out: weed inhibition rate
Procedure: (§7) Herbicidal Effect Test by Soil Application in Upland Field
as §4, with “One day” for “Seven days”

Digitaria ciliaris [8] = assay: as above; conditions: 1 day after sowing, 120 g per 10 ares, 14 days after application; for inhibition at 1200 g/ha: Digitaria ciliaris, read-out: weed inhibition rate
Procedure: as §7
as §4, with “One day” for “Seven days”

Structure (SMILES): Cc1ccccc1CO[C@@H]1C[C@]2(C(C)C)O[C@@]1(C)C[C@@H]2F [1-2, (1R,2S,4S,5R)-2-fluoro-1-isopropyl-4-methyl-5-((2-methylbenzyl)oxy)-7-oxabicyclo[2.2.1]heptane]
- inhibition at 1200 g/ha (Lindemia pyxidaria): ≥ 80%

Structure (SMILES): CC(C)[C@]12C[C@@H](OCc3ccccc3F)[C@](C)(C[C@@H]1Br)O2 [1-19, (1S,2R,4R,5S)-5-bromo-2-[(2-fluorophenyl)methoxy]-1-methyl-4-isopropyl-7-oxabicyclo[2.2.1]heptane]
- inhibition at 1200 g/ha (Lindemia pyxidaria): ≥ 80%

Structure (SMILES): CC(=O)O[C@H]1C[C@]2(C)O[C@@]1(C(C)C)C[C@H]2OCc1ccccc1F [1-480, [(1R,2S,4S,5R)-5-[(2-fluorophenyl)methoxy]-4-methyl-1-isopropyl-7-oxabicyclo[2.2.1]heptan-2-yl]acetate]
- weed inhibition rate (Echinochloa crus-galli [1]): ≥ 80%
- weed inhibition rate (Digitaria ciliaris [2]): ≥ 80%
- weed inhibition rate (Scirpus juncoides [3]): ≥ 80%
- weed inhibition rate [4]: ≥ 80%
- weed inhibition rate (Scirpus juncoides [5]): ≥ 80%
- weed inhibition rate [6]: ≥ 80%
- weed inhibition rate (Echinochloa crus-galli [7]): ≥ 80%
- weed inhibition rate (Digitaria ciliaris [8]): ≥ 80%

Structure (SMILES): CC(C)=CCO[C@@H]1C[C@]2(C(C)C)O[C@@]1(C)C[C@@H]2Br [1-672, (1S,2R,4R,5S)-5-bromo-1-methyl-2-(3-methylbut-2-enoxy)-4-isopropyl-7-oxabicyclo[2.2.1]heptane]
- inhibition at 1200 g/ha (Lindemia pyxidaria): ≥ 80%

Structure (SMILES): CC(C)[C@]12C[C@@H](OCc3cccc(C(F)(F)F)c3)[C@](C)(C[C@@H]1Br)O2 [1-701, (1S,2R,4R,5S)-5-bromo-1-methyl-4-isopropyl-2-[[3-(trifluoromethyl)phenyl]methoxy]-7-oxabicyclo[2.2.1]heptane]
- inhibition at 1200 g/ha (Echinochloa crus-galli [1]): ≥ 80%
- inhibition at 1200 g/ha (Digitaria ciliaris [2]): ≥ 80%
- inhibition at 1200 g/ha [4]: ≥ 80%
- inhibition at 1200 g/ha [6]: ≥ 80%
- inhibition at 1200 g/ha (Echinochloa crus-galli [7]): ≥ 80%
- inhibition at 1200 g/ha (Digitaria ciliaris [8]): ≥ 80%

Structure (SMILES): CC(C)[C@]12C[C@@H](OCc3ccccc3C#N)[C@](C)(C[C@@H]1Br)O2 [1-703, 2-[[(1S,2R,4R,5S)-5-bromo-1-methyl-4-isopropyl-7-oxabicyclo[2.2.1]heptan-2-yl]oxymethyl]benzonitrile]
- inhibition at 1200 g/ha (Lindemia pyxidaria): ≥ 80%

Structure (SMILES): CC(C)[C@]12C[C@@H](OCc3ccccc3F)[C@](C)(C[C@H]1OCC1CC1)O2 [1-921, (1S,2R,4R,5R)-5-(cyclopropylmethoxy)-2-[(2-fluorophenyl)methoxy]-1-methyl-4-isopropyl-7-oxabicyclo[2.2.1]heptane]
- inhibition at 1200 g/ha (Lindemia pyxidaria): ≥ 80%

Structure (SMILES): C=CCO[C@@H]1C[C@]2(C)O[C@@]1(C(C)C)C[C@H]2OCc1ccccc1F [1-930, (1S,2R,4R,5R)-2-[(2-fluorophenyl)methoxy]-1-methyl-4-isopropyl-5-prop-2-enoxy-7-oxabicyclo[2.2.1]heptane]
- inhibition at 1200 g/ha (Lindemia pyxidaria): ≥ 80%

Structure (SMILES): C#CCO[C@@H]1C[C@]2(C)O[C@@]1(C(C)C)C[C@H]2OCc1ccccc1F [1-931, (1S,2R,4R,5R)-2-[(2-fluorophenyl)methoxy]-1-methyl-4-isopropyl-5-prop-2-ynoxy-7-oxabicyclo[2.2.1]heptane]
- inhibition at 1200 g/ha (Lindemia pyxidaria): ≥ 80%

Structure (SMILES): COC1(OC)C[C@]2(C)O[C@@]1(C(C)C)C[C@H]2OCc1ccccc1F [1-935, (1R,4S,5R)-5-((2-fluorobenzyl)oxy)-1-isopropyl-2,2-dimethoxy-4-methyl-7-oxabicyclo[2.2.1]heptane]
- inhibition at 1200 g/ha (Lindemia pyxidaria): ≥ 80%

Structure (SMILES): CC(C)[C@]12C[C@@H](OCc3ccccc3F)[C@](C)(C[C@@H]1OCc1ccccc1)O2 [1-1606, (1S,2R,4R,5S)-2-[(2-fluorophenyl)methoxy]-1-methyl-5-phenylmethoxy-4-isopropyl-7-oxabicyclo[2.2.1]heptane]
- inhibition at 1200 g/ha (Echinochloa crus-galli [1]): ≥ 80%
- inhibition at 1200 g/ha (Digitaria ciliaris [2]): ≥ 80%
- inhibition at 1200 g/ha [4]: ≥ 80%
- inhibition at 1200 g/ha [6]: ≥ 80%
- inhibition at 1200 g/ha (Echinochloa crus-galli [7]): ≥ 80%
- inhibition at 1200 g/ha (Digitaria ciliaris [8]): ≥ 80%

Structure (SMILES): Cc1ccccc1CO[C@@H]1C[C@]2(C(C)C)O[C@@]1(C)CC2=O [2-3, (1R,4S,5R)-1-isopropyl-4-methyl-5-((2-methylbenzyl)oxy)-7-oxabicyclo[2.2.1]heptan-2-one]
- inhibition at 1200 g/ha (Lindemia pyxidaria): ≥ 80%

Structure (SMILES): Cc1cccc(C)c1CO[C@@H]1C[C@]2(C(C)C)O[C@@]1(C)CC2=O [2-5, (1R,4S,5R)-5-((2,6-dimethylbenzyl)oxy)-1-isopropyl-4-methyl-7-oxabicyclo[2.2.1]heptan-2-one]
- inhibition at 1200 g/ha (Lindemia pyxidaria): ≥ 80%

Structure (SMILES): CC(C)[C@]12C[C@@H](OCc3ccccc3Cl)[C@](C)(CC1=O)O2 [2-11, (1R,4S,5R)-5-((2-chlorobenzyl)oxy)-1-isopropyl-4-methyl-7-oxabicyclo[2.2.1]heptan-2-one]
- inhibition at 1200 g/ha (Lindemia pyxidaria): ≥ 80%

Structure (SMILES): CC(C)[C@]12C[C@@H](OCc3c(F)cccc3F)[C@](C)(CC1=O)O2 [2-20, (1R,4S,5R)-5-((2,6-difluorobenzyl)oxy)-1-isopropyl-4-methyl-7-oxabicyclo[2.2.1]heptan-2-one]
- inhibition at 1200 g/ha (Lindemia pyxidaria): ≥ 80%

Structure (SMILES): C=C1C[C@]2(C)O[C@@]1(C(C)C)C[C@H]2OCc1ccccc1C [2-72, (1R,4S,5R)-1-isopropyl-4-methyl-5-((2-methylbenzyl)oxy)-2-methylene-7-oxabicyclo[2.2.1]heptane]
- inhibition at 1200 g/ha (Lindemia pyxidaria): ≥ 80%

Structure (SMILES): C=C1C[C@]2(C)O[C@@]1(C(C)C)C[C@H]2OCc1ccccc1F [2-88, (1R,4S,5R)-5-((2-fluorobenzyl)oxy)-1-isopropyl-4-methyl-2-methylene-7-oxabicyclo[2.2.1]heptane]
- inhibition at 1200 g/ha (Lindemia pyxidaria): ≥ 80%

Structure (SMILES): CC(C)[C@]12C[C@@H](OCc3ccc(F)cc3)[C@](C)(CC1=O)O2 [2-349, (1R,4S,5R)-5-((4-fluorobenzyl)oxy)-1-isopropyl-4-methyl-7-oxabicyclo[2.2.1]heptan-2-one]
- inhibition at 1200 g/ha (Lindemia pyxidaria): ≥ 80%

Structure (SMILES): CC(C)[C@]12C[C@@H](OCc3cccc(F)c3)[C@](C)(CC1=O)O2 [2-351, (1R,4S,5R)-5-((3-fluorobenzyl)oxy)-1-isopropyl-4-methyl-7-oxabicyclo[2.2.1]heptan-2-one]
- inhibition at 1200 g/ha (Lindemia pyxidaria): ≥ 80%

Structure (SMILES): Cc1cccc(CO[C@@H]2C[C@]3(C(C)C)O[C@@]2(C)CC3=O)c1 [2-352, (1R,4S,5R)-1-isopropyl-4-methyl-5-((3-methylbenzyl)oxy)-7-oxabicyclo[2.2.1]heptan-2-one]
- inhibition at 1200 g/ha (Lindemia pyxidaria): ≥ 80%

Structure (SMILES): CC(C)[C@]12C=C[C@](C)(O1)[C@H](OCc1ccccc1F)C2 [3-5, (1R,4S,5R)-5-[(2-fluorophenyl)methoxy]-4-methyl-1-isopropyl-7-oxabicyclo[2.2.1]hept-2-ene]
- inhibition at 1200 g/ha (Lindemia pyxidaria): ≥ 80%
